Reference: publication PMC6013775, “Inhibition of the key enzyme of sialic acid biosynthesis by C6-Se modified N-acetylmannosamine analogs” (Chemical Science, 2016)
“And” between values parts separate entries of the source, which are not always exact repeats. Equal values may be shown once.

Tests used:
[1] = molecular target: T1, human MNK (N-acetylmannosamine kinase) (Homo sapiens, UniProt Q9Y223); experiment: MNK activity, coupled optical assay based on NADH consumption; type: biochemical
T1 construct: His; made in house; host or cells: Escherichia coli BL21-CodonPlus (DE3)-RIL
T1 sequence (Q9Y223 406-722 limits assumed): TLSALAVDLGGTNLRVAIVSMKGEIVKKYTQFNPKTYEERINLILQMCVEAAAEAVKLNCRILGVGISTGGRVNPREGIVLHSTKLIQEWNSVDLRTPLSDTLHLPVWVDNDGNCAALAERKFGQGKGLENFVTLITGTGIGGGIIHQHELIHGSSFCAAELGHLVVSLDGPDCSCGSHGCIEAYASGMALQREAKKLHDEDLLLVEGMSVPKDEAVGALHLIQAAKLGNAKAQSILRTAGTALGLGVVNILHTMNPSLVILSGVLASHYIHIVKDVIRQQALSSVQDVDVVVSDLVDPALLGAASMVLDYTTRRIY
Method: (§1) N-Acetylmannosamine kinase and N-acetylglucosamine kinase expression and […]
(§2) Human N-acetylmannosamine kinase (MNK) was expressed and purified using an established method.1 Therefore, his-tagged MNK was expressed in BL21-CodonPlus (DE3)-RIL Escherichia coli (Stragene). Purification was performed by Ni-NTA affinity chromatography, and subsequently size exclusion chromatography on a SuperdexTM HighLoad 16/600 column (GE Healthcare). […]
To evaluate their purity, protein samples were mixed with SDS-PAGE sample buffer, denatured at 90 °C for 1 min and separated by a 10% SDS-PAGE gel. Proteins were visualized with Coomassie G-250 staining solution (Biorad), and PageRuler Prestained Plus (Biorad) was used as a marker (Figure S1 ).
Figure S1. SDS-PAGE of His-tagged MNK (His-MNK) and GST-tagged GNK
(GST-GNK) after affinity chromatography and size exclusion chromatography.
Apparent molecular masses given by the marker are indicated on the left side.
1 J. Martinez, L. D. Nguyen, S. Hinderlich, R. Zimmer, E. Tauberger, W. Reutter, W. Saenger, H. Fan
2 W.A. Weihofen, M. Berger, H. Chen, W. Saenger, and S. Hinderlich, J. Mol. Biol., 2006, 364, 388.
(1 picture or pasted object on this page, not shown here)
Enzyme activity and inhibition studies using N-acetylmannosamine kinase, N-acetylglucosamine kinase and yeast hexokinase
Evaluation MNK activity in presence of the compounds 11, 12, 14b, 16b and 18b The effects of compounds 11, 12, 14b, 16b, or 18b on MNK enzyme activity were evaluated using a coupled optical assay. 55 µl reaction mixture contained the following buffers and reagents: 39.5 µl buffer A (65 mM MgCl2, 200 mM Tris-HCl, pH 8.1), 5 µl ATP (50 mM), 3.5 µl NADH (30 mM), 2 µl phosphoenolpyruvate (100 mM), 2 U pyruvate-kinase, 2 U lactate-dehydrogenase, 5 µl ManNAc of varying concentrations. Subsequently, 10 µl of the compounds 11, 12, 14b, 16b and 18b were added in varying concentrations. The reaction was initiated by adding 0.6 µg MNK in 35 µL buffer B (10 mM Tris-HCl, 150 mM NaCl, pH 8.0). Samples were incubated at 37°C. Spectrophotometric measurements of NADH concentration was performed at 340 nm. Results obtained were normalized to blanks, consisting of 55 µl reaction mixture, 10 µl H 2O and 35 µl buffer B without MNK.
GNK and hexokinase inhibition assays using compound 14b
To evaluate the specificity of the inhibitor 14b towards other sugar kinases, we performed further inhibition experiments using human GNK and hexokinase (HK) from yeast (Sigma, H-5000). 39.5 µl Buffer A (see above), 5 µl ATP (50 mM), 3.5 µl NADH (30 mM), 2 µl phosphoenolpyruvate (100 mM), 2 U pyruvate-kinase, 2 U lactate-dehydrogenase, 5 µl GlcNAc (7.5 mM, for GNK experiments), or 5 µl ManNAc (7.5 mM, for GNK experiments), or glucose (5 mM, for HK experiments), and 10 µl 14b (varying concentrations) were mixed with either 1 µg GNK or 0.2 µg HK in 35 µL buffer B. The decrease of NADH was measured in a spectrophotometer […]
5 mM for HK activity, respectively (Figure S2).
Figure S2. Inhibition of GNK and HK activity by 14b. Values are means ± SEM of […]

[2] = Stability of the diselenide towards thiol reducing agents, 77Se NMR; type: physicochemical
Method: At this stage, we also wanted to evaluate the stability of the diselenide 14b in presence of thiol-containing reducing agents like dithiothreitol (DTT) or glutathione (GSH) to address the application of our compounds in living cells. Therefore, the possible reduction of the diselenide bond was monitored by ^77Se NMR using a solution of 60 mM concentration of 14b in an aqueous saturated DTT solution at room temperature. Immediately after the addition of 14b to the DTT solution, a characteristic signal for the selenol compound at –48.1 ppm was observed and a major peak at 294 ppm related to the diselenide. Concretely, the integration of diselenide/selenol peaks gave a 90 : 10 ratio (details in ESI ^†).

[3] = molecular target: T2, human GlcNAc kinase (GNK) (Homo sapiens, UniProt Q9UJ70); experiment: GNK inhibition, coupled optical assay; type: biochemical
T2 construct: GST; made in house; host or cells: Escherichia coli BL21-CodonPlus(DE3)-RIL
T2 sequence (Q9UJ70 whole entry): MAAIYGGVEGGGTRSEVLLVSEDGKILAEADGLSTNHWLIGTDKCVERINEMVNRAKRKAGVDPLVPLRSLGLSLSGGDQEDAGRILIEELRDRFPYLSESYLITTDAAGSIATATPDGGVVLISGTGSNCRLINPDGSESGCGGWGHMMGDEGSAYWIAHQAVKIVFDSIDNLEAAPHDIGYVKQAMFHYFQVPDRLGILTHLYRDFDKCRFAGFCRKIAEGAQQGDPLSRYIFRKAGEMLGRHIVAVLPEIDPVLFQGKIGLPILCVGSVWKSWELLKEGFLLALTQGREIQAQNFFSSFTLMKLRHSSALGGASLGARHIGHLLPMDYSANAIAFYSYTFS
Source text: With the potent diselenide compound 14b in hand, we further studied the binding properties of this potent MNK inhibitor, which is to our knowledge the strongest MNK inhibitor reported to date. Diselenide 14b inhibited MNK activity in a dose dependent manner (Fig. 2A). […] Additionally, we tested if diselenide 14b influenced the GNE activity of the bifunctional GNE/MNK. […] To evaluate the specificity of the inhibitor towards other sugar kinases, we performed further inhibition studies using human GlcNAc kinase (GNK) and hexokinase (HK) from yeast (details in ESI ^†).
as §1, §2
Evaluation MNK activity in presence of the compounds 11, 12, 14b, 16b and 18b The effects of compounds 11, 12, 14b, 16b, or 18b on MNK enzyme activity were evaluated using a coupled optical assay. […]

Which “mode of inhibition towards ManNAc” value ([1]; 14b 25 μM, different concentrations of ManNAc) does the source give for `CC(=O)N[C@@H]1C(O)O[C@H](C[Se][Se]C[C@H]2OC(O)[C@@H](NC(C)=O)[C@@H](O)[C@@H]2O)[C@@H](O)[C@@H]1O` (stereo partly drawn) [Compound 14b] here?
The value was “competitive inhibition”.

What about the Ki ([1]; 14b 25 μM, different concentrations of ManNAc, Lineweaver-Burk plot, read-out: inhibitor constant (Ki)) of the same compound?
Its Ki is 15.7 µM.

What about the IC50 ([1]; purified human MNK, ManNAc 125 μM, ATP, means ± SEM, read-out: IC50 for MNK inhibition) of the same compound?
Its IC50 is 8.5 µM.

What about the “species detected by 77Se NMR” value ([2]; 60 mM in aqueous saturated DTT solution, between 15 min and 5 h) of the same compound?
Its value is “only signals from the diselenide were detected”.

And the “species detected by 77Se NMR” value ([2]; 60 mM in saturated GSH solution)?
The value was “only diselenide 14b was detected”.

And the IC50 [3]?
Its IC50 is ~1700 µM and 1700 µM.
